Test results as given in patent publication US11976083B2, “Inhibitors of peptidylarginine deiminases” (Gilead Sciences, Inc., priority 2020, dated 2024).

Each compound was assayed against T1, human PAD4 (Homo sapiens, UniProt Q9UM07) (assay: In vitro PAD4 BAEE biochemical assay). Details: BAEE substrate 3 mM, 5 nM PAD4, 2 mM calcium chloride; geometric mean of multiple experiments.
T1 construct: human PAD4 (NM_012387), A2-P663, was PCR amplified; His-SUMO (N, cleaved yes); made in house; host or cells: E. coli BL21(DE3)
In short: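 PAD4 5 nM, CaCl2 2 mM, BAEE 3 mM final; 50 mM MOPS pH 7.6, 50 mM NaCl, 0.05% Tween-20, 2 mM DTT. Cpd + enzyme 30 min 25 °C; substrate 2 h 25 °C; EDTA stop; OPA detection 1 h. IC50 4-parameter fit.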

T1 sequence (Q9UM07 2-663): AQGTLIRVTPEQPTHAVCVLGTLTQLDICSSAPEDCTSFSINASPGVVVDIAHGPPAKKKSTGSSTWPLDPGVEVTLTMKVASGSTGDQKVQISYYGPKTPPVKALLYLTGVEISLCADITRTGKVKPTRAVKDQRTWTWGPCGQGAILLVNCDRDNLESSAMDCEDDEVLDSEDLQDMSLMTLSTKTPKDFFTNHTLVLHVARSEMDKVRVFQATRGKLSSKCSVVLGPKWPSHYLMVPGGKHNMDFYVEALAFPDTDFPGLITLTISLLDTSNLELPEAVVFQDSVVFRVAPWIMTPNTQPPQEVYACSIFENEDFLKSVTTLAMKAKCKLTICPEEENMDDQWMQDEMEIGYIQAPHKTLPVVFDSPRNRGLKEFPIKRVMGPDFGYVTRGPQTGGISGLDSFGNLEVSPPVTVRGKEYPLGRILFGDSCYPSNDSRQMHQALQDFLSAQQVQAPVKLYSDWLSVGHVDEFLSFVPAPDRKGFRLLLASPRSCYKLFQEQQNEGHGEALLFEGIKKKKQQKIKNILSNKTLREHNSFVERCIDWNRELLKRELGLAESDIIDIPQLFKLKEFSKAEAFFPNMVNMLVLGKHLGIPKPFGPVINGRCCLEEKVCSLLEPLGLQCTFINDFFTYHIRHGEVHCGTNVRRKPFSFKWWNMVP

| SMILES | IC50 [nM] |
| --- | --- |
| C[C@H]1NC(=O)C(C)(C)CCCCCCn2c(-c3nc4cc(C(=O)N[C@H]5CNCC[C@@H]5F)c(F)cc4n3C3CC3)cc3ccc1nc32 [Example 179, 1-cyclopropyl-6-fluoro-~{N}-[(3~{S},4~{S})-4-fluoro-3-piperidyl]-2-[(11~{R})-8,8,11-trimethyl-9-oxo-1,10,19-triazatricyclo[10.5.2.0^{15,18}]nonadeca-12(19),13,15(18),16-tetraen-17-yl]benzimidazole-5-carboxamide] | 62 |
| COc1cc(C(=O)N[C@H]2CNCC[C@@H]2F)cc2nc(-c3cc4ccc5nc4n3C[C@H]3C[C@H]3CCC[C@](C)(C(F)(F)F)C(=O)N[C@@H]5C)n(C)c12 [Example 371, 2-[(3~{S},5~{R},9~{S},12~{R})-9,12-dimethyl-10-oxo-9-(trifluoromethyl)-1,11,20-triazatetracyclo[11.5.2.0^{3,5}.0^{16,19}]icosa-13(20),14,16(19),17-tetraen-18-yl]-~{N}-[(3~{S},4~{S})-4-fluoro-3-piperidyl]-7-methoxy-1-methyl-benzimidazole-5-carboxamide] | 222 |
| COC(=O)[C@H]1CC[C@@H](NC(=O)c2cc(OC)c3c(c2)nc(-c2cc4ccc5nc4n2CCCCCCC(C)(C)C(=O)N[C@@H]5C)n3C)CN1 [Example 71, methyl (2~{R},5~{R})-5-[[7-methoxy-1-methyl-2-[(11~{R})-8,8,11-trimethyl-9-oxo-1,10,19-triazatricyclo[10.5.2.0^{15,18}]nonadeca-12(19),13,15(18),16-tetraen-17-yl]benzimidazole-5-carbonyl]amino]piperidine-2-carboxylate] | 560 |
| COc1cc(C(=O)N2[C@H]3CC[C@@H]2[C@H](N)C3)cc2nc(-c3cc4ccc5nc4n3CCCCCCn3nccc3C(=O)N[C@@H]5C)c(C)n12 [Example 35, (2~{R})-17-[7-[(1~{R},2~{R},4~{S})-2-amino-7-azabicyclo[2.2.1]heptane-7-carbonyl]-5-methoxy-3-methyl-imidazo[1,2-a]pyridin-2-yl]-2-methyl-3,8,9,16,22-pentazatetracyclo[14.5.2.0^{5,9).0^{19,23}] tricosa-1(22),5,7,17,19(23),20-hexaen-4-one] | 34 |
| C[C@H]1NC(=O)[C@@H]2C[C@H]2CCCCCn2c(-c3nc4cc(C(=O)N5C[C@H](N)[C@@H]6CC[C@H]5C6)cnc4n3C3CC3)cc3ccc1nc32 [Example 458, (2~{R},5~{R},7~{R})-14-[6-[(1~{S),4~{R},5~{R})-4-amino-2-azabicyclo[3.2.1]octane-2-carbonyl]-3-cyclopropyl-imidazo[4,5-b]pyridin-2-yl]-2-methyl-3,13,19-triazatetracyclo[11.5.2.0^{5,7}.0^{16,20}] icosa-1(19),14,16(20),17-tetraen-4-one] | 23 |
| COc1cc(C(=O)N2CC[C@@H](OC)[C@@H](N)C2)cc2nc(-c3cc4ccc5nc4n3CCCCCCC(F)(F)C(=O)N[C@@H]5C)n(C)c12 [Example 374, (11~{R})-17-[5-[(3~{S},4~{R})-3-amino-4-methoxy-piperidine-1-carbonyl]-7-methoxy-1-methyl-benzimidazol-2-yl]-8,8-difluoro-11-methyl-1,10,19-triazatricyclo[10.5.2.0^{15,18}]nonadeca-12(19),13,15(18),16-tetraen-9-one] | 121 |
| COc1cc(C(=O)N2CC[C@@H](OC)[C@@H](N)C2)cc2nc(-c3cc4ccc5nc4n3CCCCCc3ncccc3C(=O)N[C@@H]5C)n(C)c12 [Example 409, (2~{R})-17-[5-[(3~{S},4~{R})-3-amino-4-methoxy-piperidine-1-carbonyl]-7-methoxy-1-methyl-benzimidazol-2-yl]-2-methyl-3,9,16,22-tetrazatetracyclo[14.5.2.0^{5,10}.0^{19,23}] tricosa-1(22),5(10),6,8,17,19(23),20-heptaen-4-one] | 83 |
| C[C@H]1NC(=O)CCCCCCCn2c(-c3nc4cc(C(=O)N5CCC[C@@H](N)C5)ccn4c3C3CC3)cc3ccc1nc32 [Example 228, (11~{R})-17-[7-[(3~{R})-3-aminopiperidine-1-carbonyl]-3-cyclopropyl-imidazo[1,2-a]pyridin-2-yl]-11-methyl-1,10,19-triazatricyclo[10.5.2.0^{15,18}]nonadeca-12(19),13,15(18),16-tetraen-9-one] | 131 |
| COc1cc(C(=O)N2[C@H]3CC[C@@H]2[C@H](N)C3)cc2nc(-c3cc4ccc5nc4n3CCCCCCOCC(=O)N[C@@H]5C)c(C)n12 [Example 248, (12~{R})-18-[7-[(1~{R},2~{R},4~{S})-2-amino-7-azabicyclo[2.2.1]heptane-7-carbonyl]-5-methoxy-3-methyl-imidazo[1,2-a]pyridin-2-yl]-12-methyl-8-oxa-1,11,20-triazatricyclo[11.5.2.0^{16,19}]icosa-13(20),14,16(19),17-tetraen-10-one] | 44 |
| C[C@H]1NC(=O)[C@@H]2C[C@H]2CCCC(F)(F)Cn2c(-c3nc4cc(C(=O)N5C[C@H](N)[C@@H]6CC[C@H]5C6)cc(Cl)c4n3C3CC3)cc3ccc1nc32 [Example 471, (2~{R},5~{R},7~{R})-14-[5-[(1~{S),4~{R},5~{R})-4-amino-2-azabicyclo[3.2.1]octane-2-carbonyl]-7-chloro-1-cyclopropyl-benzimidazol-2-yl]-11,11-difluoro-2-methyl-3,13,19-triazatetracyclo[11.5.2.0^{5,7}.0^{16,20}] icosa-1(18),14,16,19-tetraen-4-one] | 44 |
| COc1cc(C(=O)N2CC[C@@H](OC)[C@@H](N)C2)cc2nc(-c3cc4ccc5cc4n3CCCCCCC(C)(C)C(=O)N[C@@H]5C)n(C)c12 [Example 173, (11~{R})-17-[5-[(3~{S},4~{R})-3-amino-4-methoxy-piperidine-1-carbonyl]-7-methoxy-1-methyl-benzimidazol-2-yl]-8,8,11-trimethyl-1,10-diazatricyclo[10.5.2.0^{15,18}]nonadeca-12(19),13,15(18),16-tetraen-9-one] | 109 |

Second part, the compound after the results:

| IC50 [nM] | SMILES |
| --- | --- |
| 239 | COc1cc(C(=O)N2CC[C@@H]3CCN[C@@H]3C2)cc2nc(-c3cc4ccc5nc4n3CCCCC[C@@H]3C[C@H]3C(=O)N[C@@H]5C)n(C)c12 [Example 532, (2~{R},5~{R},7~{R})-14-[5-[(3~{a}~{S}, 7~{a}~{S})-1,2,3,3~ {a},4,5,7,7~{a}-octahydropyrrolo[2,3-c]pyridine-6-carbonyl]-7-methoxy-1-methyl-benzimidazol-2-yl]-2-methyl-3,13,19-triazatetracyclo[11.5.2.0^ {5,7}.0^{16,20}]icosa-1 (19),14,16(20),17-tetraen-4-one] |
| 13 | COc1cc(C(=O)N2C[C@H](N)[C@@H]3CC[C@H]2C3)cc2nc(-c3cc4ccc5nc4n3CCCCCC[C@@H](c3ccccn3)C(=O)N[C@@H]5C)n(C)c12 [Example 891, (8~{S),11~{R})-17-[5-[(1~{S},4~{R},5~{R})-4-amino-2-azabicyclo[3.2.1]octane-2-carbonyl]-7-methoxy-1-methyl-benzimidazol-2-yl]-11-methyl-8-(2-pyridyl)-1,10,19-triazatricyclo[10.5.2.0^ {15,18}]nonadeca-12(19), 13,15(18),16-tetraen-9-one] |
| 125 | COc1cc(C(=O)N2CC[C@@H](OC)[C@@H](N)C2)cc2nc(-c3cc4ccc5nc4n3CCC/C=C/c3ccccc3C(=O)N[C@@H]5C)n(C)c12 [Example 496, (2~{R},11~{E})-17-[5-[(3~{S},4~{R})-3-amino-4-methoxy-piperidine-1-carbonyl]-7-methoxy-1-methyl-benzimidazol-2-yl]-2-methyl-3,16,22-triazatetracyclo[14.5.2.0^ {5,10).0^{19,23}]tricosa-1(22),5(10),6,8,11,17,19 (23),20-octaen-4-one] |
| 20 | C[C@@H]1[C@H](N)CCCN1C(=O)c1cc(F)c2c(c1)nc(-c1cc3ccc4nc3n1CCCCC[C@]1(F)C[C@H]1C(=O)N[C@@H]4C)n2C1CC1 [Example 705, (2~{R},5~{S},7~{S})-14-[5-[(2~{R},3~{R})-3-amino-2-methyl-piperidine-1-carbonyl]-1-cyclopropyl-7-fluoro-benzimidazol-2-yl]-7-fluoro-2-methyl-3,13,19-triazatetracyclo[11.5.2.0^ {5,7}.0^{16,20}]icosa-1(19),14,16(20),17-tetraen-4-one] |
| 22 | COc1cc(C(=O)N2C[C@H](N)[C@@H]3CC[C@H]2[C@H]3F)cc2nc(-c3cc4ccc5nc4n3CC(F)(F)CCC[C@@H]3C[C@H]3C(=O)N[C@@H]5C)n(C)c12 [Example 668, (2~{R},5~{R},7~{R})-14-[5-[(1~{S},4~{R},5~ {S},8~{S})-4-amino-8-fluoro-2-azabicyclo [3.2.1]octane-2-carbonyl]-7-methoxy-1-methyl-benzimidazol-2-yl]-11,11-difluoro-2-methyl-3,13,19-triazatetracyclo [11.5.2.0^{5,7}.0^{16,20}] icosa-1(19),14,16(20), 17-tetraen-4-one] |
| 54 | COc1cc(C(=O)N2CC[C@@H](OC)[C@@H](N)C2)cc2nc(-c3cc4ccc5c(F)c4n3CCCCCCC(C)(C)C(=O)N[C@@H]5C)n(C)c12 [Example 643, (11~{R})-17-[5-[(3~{S}, 4~{R})-3-amino-4-methoxy-piperidine-1-carbonyl]-7-methoxy-1-methyl-benzimidazol-2-yl]-19-fluoro-8,8,11-trimethyl-1,10-diazatricyclo[10.5.2.0^ {15,18}]nonadeca-12(19),13,15(18),16-tetraen-9-one] |
| 42 | C[C@H]1NC(=O)c2ccc(Cl)nc2CCCCCn2c(-c3nc4cc(C(=O)N5C[C@H](N)[C@@H]6CC[C@H]5C6)cc(F)c4n3C3CC3)cc3ccc1nc32 [Example 472, (2˜{R})-17-[5-[(1˜{S},4˜{R},5˜{R})-4-amino-2-azabicyclo[3.2.1]octane-2-carbonyl]-1-cyclopropyl-7-fluoro-benzimidazol-2-yl]-8-chloro-2-methyl-3,9,16,22-tetrazatetracyclo[14.5.2.0^{5,10}.0^{19,23}]tricosa-1(21),5(10),6,8,17,19,22-heptaen-4-one] |
